Assay results reported in patent publication US20100015258A1, “Rice Bran Extracts and Methods of Use Thereof” (priority 2008, published 2010).
Where two headings read alike, the source gives them in different places.

Tests used:
[1] = biological target: T1, Fatty Acid Binding Protein 4 (FABP4) (Homo sapiens, UniProt P15090); test: FABP4 Inhibitor/Ligand Screening Kit (fluorescence); conditions: based on contribution across all actives, read-out: Predicted IC50
T1 construct: purchased Cayman, Ann Arbor, Mich
Description: Fatty Acid Binding Protein 4 (FABP4) inhibition was determined using the Fatty Acid Binding Protein 4 (FABP4) Inhibitor/Ligand Screening Kit (Cayman, Ann Arbor, Mich.). […] Potential inhibitors/ligands of the FABP4 protein were incubated to FABP4 in assay buffer for 15 minutes at room temperature. Arachidonic acid was used as a known inhibitor standard for comparison. The positive control wells received no inhibitor/ligand (i.e., no arachidonic acid or extract) and the negative control wells received no FABP4. The extracts, in solution, were then exposed to a developer that will fluoresce when bound to FABP4. If FABP4 is inhibited, reduction in fluorescence yield is observed. Fluorescence was quantified using a Synergy 4 plate reader that is tuned to excitation/emission wavelengths of 370 nm and 475 nm, respectively. The fluorescence of the negative controls was subtracted from the positive control wells, and the fluorescence from the “undetected” wells was subtracted from the corresponding “detected” wells. An IC50 value was determined based on the percent fluorescence of the corrected extract wells relative to the corrected positive controls.

3T3-L1 cells = test: [1,2-3H]2-Deoxy-D-glucose (2-deoxyglucose) uptake; assay type: cell-based; conditions: for CPM (glucose uptake): 3T3-L1 cells
Description: 1. [1,2-^3H]2-Deoxy-D-glucose (2-deoxyglucose) Uptake: Cells, 3T3-L adipocytes, were grown and differentiated as described below. Prior to [^3H]2-deoxyglucose uptake, cells were switched to DMEM with 0.1% bovine serum albumin for 6 h. The [^3H]2-deoxyglucose uptake was assayed as described (D. R. Cooper, J. E. Watson, N. Patel, P. Illingworth, M. Cevedo-Duncan, J. Goodnight, C. E. Chalfant, and H. Mischak, 1999. Ectopic expression of protein kinase CbetaII, -delta, and -epsilon, but not-betaI or -zeta, provide for insulin stimulation of glucose uptake in NIH-3T3 cells. Arch. Biochem. Biophys., 372:69-79; T. P Ciraldi, O. G. Kolterman, and J. M. Olesky, 1981. Mechanism of the postreceptor defect in insulin action in human obesity: decrease in glucose transport system activity. J. Clin Invest., 68:875-880.). […] Uptake was measured by the addition of 10 nmol of [^3H] 2-deoxyglucose (50-150 μCi/μmol) and followed by incubation for 6 min at 37° C. The uptake was terminated by aspiration of media and cell monolayers were washed three times with cold DPBS. Cells were lysed with 1 ml of 1% (w/v) SDS, and radioactivity determined by liquid scintillation counting. The 2-Deoxyglucose uptake refers to transport of the analogue across the plasma membrane operating in tandem with its phosphorylation by hexokinase.

[2] = range across SRB Extracts 1 to 14

T1 sequence (P15090 whole entry, species assumed): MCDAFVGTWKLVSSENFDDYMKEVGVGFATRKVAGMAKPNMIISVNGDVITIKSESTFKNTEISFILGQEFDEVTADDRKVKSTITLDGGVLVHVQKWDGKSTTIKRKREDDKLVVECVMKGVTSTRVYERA

Compound	IC50 ([1]; in SRB Extract 6)	IC50 [1, 2]	further results
4,5-Dihydro-4-hydroxy-5-methyl-2-tetradecyl-2(3H)-furanone	73.3 µM	61 to 85 µM	–
24-Nor-4(23),9(11)-fernadiene	–	29.9 to 61.3 µM	–
CCCCCCCCCCCCCCCCCCCCCCCCCCCCCCOC(=O)C=Cc1ccc(O)c(O)c1 [3-(3,4-Dihydroxyphenyl)-2-propenoicacid Triacontyl ester]	29.7 µM	7.99 to 101 µM	–
CCCCCCCCC=CCCCCCCCC1CC(O)C(=O)O1 (centres unmarked) [5-(8-Heptadecenyl)dihydro-3-hydroxy-2(3H)-furanone]	96.8 µM	38.9 to 117 µM	–
CC1(C)CCC2(C)CCC3(C)C(=C2C1)C=CC1C2(C)CCCC(C)(C)C2CCC13C (centres unmarked) [11,13(18)-Oleanadiene]	91 µM	28.3 to 90.3 µM	–
C=C(CCC(C)C1CCC2(C)C3CCC4CC(O)CCC45CC35CCC12C)C(C)C (centres unmarked) [14-Methyl-9,19-cycloergost-24(28)-en-3-ol]	60.5 µM	21.3 to 25.7 µM	–
CC1CCC2(C)CCC3(C)C(=CCC4C5(C)CCCC(C)C5CCC43C)C2C1C (centres unmarked) [24-Nor-12-ursene]	199 µM	17.4 to 160 µM	–
CC(=O)CC/C=C(\C)CC/C=C(\C)CC/C=C(\C)CC/C=C(\C)CC/C=C(\C)CC/C=C(\C)CC/C=C(\C)CCC=C(C)C [Bombiprenone]	26.5 µM	6.96 to 81.2 µM	–
CCCCC/C=C\C/C=C\CCCCCCCC(=O)OCC(CO)OC(=O)CCCCCCC/C=C\C/C=C\CCCCC (centres unmarked) [Glycerol 1,2-di-(9Z,12Z-octadecadienoate)]	24.7 µM	4.89 to 56 µM	–
CCCCCCCCCCCC/C=C\CC/C=C\CC[C@@H](O)[C@H](O)CCCCCCCCCCC1=C[C@H](C)OC1=O [Montecristin]	40 µM	17.4 to 69.5 µM	–
CC[C@H]1CC[C@H]2[C@@H]3CC(O)C4CC(O)C(O)C[C@]4(C)[C@H]3CC[C@]12C (some centres unmarked) [Pregnane-2,3,6-triol]	69.4 µM	44.2 to 80.4 µM	–
Insulin: insulin, comparator for glucose uptake stimulation	–	–	Increase over 200 nM Insulin (3T3-L1 cells; 50 nM insulin): 0.6; Increase over Control (3T3-L1 cells; 50 nM insulin): 1.1; Max CPM (3T3-L1 cells; 50 nM insulin): 149 CPM; Increase over 200 nM Insulin (3T3-L1 cells; 100 nM insulin): 0.6; Increase over Control (3T3-L1 cells; 100 nM insulin): 1.2; Max CPM (3T3-L1 cells; 100 nM insulin): 157 CPM; Increase over Control (3T3-L1 cells; 200 nM insulin): 2.0; Max CPM (3T3-L1 cells; 200 nM insulin): 266 CPM; CPM (glucose uptake) (3T3-L1 cells; insulin 50 nM): 149 CPM; CPM (glucose uptake) (3T3-L1 cells; insulin 100 nM): 157 CPM; CPM (glucose uptake) (3T3-L1 cells; insulin 200 nM): 266 CPM
